In PubChem BioAssay (NCI) one finds GI50 and TGI data, which are given here for eleven molecules.

The structures appear in SMILES notation.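 Five compound concentrations were applied to cells in 96-well plates for 48 hours; endpoints were derived by simple linear interpolation of the resulting dose-response curve. GI50 marks 50% less growth. TGI denotes the concentration required for complete inhibition of growth.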

Among the test systems are OVCAR-3 ovarian; HCC-2998 colon; RPMI-8226 leukemia; SN12C renal; MALME-3M melanoma; KM12 colon; A498 renal; UO-31 renal; SR leukemia; HCT-116 colon.
Holding throughout (test): growth of human tumour cells (NCI), 48 h

Take `CCc1ccc2c(c1)C(=O)c1c-2n(CCCN=[N+]=[N-])c(=O)c2cc(OC)c(OC)cc12`: the GI50 in the experiment on OVCAR-3 ovarian, in the experiment with HCC-2998 colon, in the experiment on RPMI-8226 leukemia, in the experiment with SN12C renal, in the experiment on MALME-3M melanoma and in the experiment on KM12 colon was over 100 µM each time. The GI50 is 25.8 µM in the experiment on A498 renal and over 100 µM with UO-31 renal. Besides, the TGI with OVCAR-3 ovarian, with HCC-2998 colon, in the experiment with RPMI-8226 leukemia, in the experiment with SN12C renal, with MALME-3M melanoma and in the experiment with KM12 colon was over 100 µM in each case. Besides, the TGI was 84.5 µM in the experiment on A498 renal and over 100 µM in the experiment on UO-31 renal.

For the molecule `Cc1nn(-c2ccc([N+](=O)[O-])cc2)c2ncnc(N/N=C/c3ccccc3O)c12`, the GI50 in the experiment on OVCAR-3 ovarian was 0.262 µM; with SR leukemia it was 0.166 µM; with RPMI-8226 leukemia, 0.619 µM; with SN12C renal it was 0.399 µM; in the experiment on MALME-3M melanoma it was 0.62 µM; in the experiment on KM12 colon, 0.379 µM. The GI50 with A498 renal is 2.92 µM. The TGI was 1.56 µM with OVCAR-3 ovarian; over 100 µM in the experiment with RPMI-8226 leukemia; 3.17 µM with SN12C renal; 3.95 µM in the experiment with MALME-3M melanoma; over 100 µM with KM12 colon; over 66.9 µM with A498 renal.

Turning to `Cc1ccc(-c2csc(NC(=O)N3CCN(c4cc5c(cc4F)c(=O)c(C(=O)O)cn5C4CC4)CC3)n2)cc1`, the GI50 is 0.492 µM in the experiment on OVCAR-3 ovarian; 0.699 µM in the experiment with HCC-2998 colon; 0.378 µM in the experiment on RPMI-8226 leukemia; 0.335 µM in the experiment on HCT-116 colon; 0.366 µM in the experiment with SN12C renal; 1.1 µM in the experiment with MALME-3M melanoma. Moreover, the GI50 is 0.458 µM in the experiment on KM12 colon, 0.572 µM in the experiment with A498 renal and 0.36 µM in the experiment on UO-31 renal. The TGI was 18.7 µM with OVCAR-3 ovarian; over 100 µM in the experiment on HCC-2998 colon; 1.9 µM in the experiment with RPMI-8226 leukemia; over 100 µM in the experiment on HCT-116 colon; over 100 µM in the experiment on SN12C renal; 5.67 µM with MALME-3M melanoma. Further, the TGI with KM12 colon is over 100 µM; in the experiment with A498 renal, 9.16 µM; in the experiment on UO-31 renal, over 100 µM.

In the case of `O=S(=O)(c1cccc2c(I)cccc12)N1CCCNCC1`, the GI50 with OVCAR-3 ovarian is 18.7 µM; in the experiment with HCC-2998 colon, 17.4 µM; with RPMI-8226 leukemia, 14.5 µM; in the experiment on HCT-116 colon it was 15.4 µM; in the experiment with SN12C renal, 21.2 µM; in the experiment with KM12 colon, 16.3 µM. Besides, the GI50 in the experiment with A498 renal was 14.2 µM; with UO-31 renal, 15.6 µM. Moreover, the TGI in the experiment on OVCAR-3 ovarian was 43.3 µM; in the experiment with HCC-2998 colon, 35.1 µM; in the experiment with RPMI-8226 leukemia it was 38.5 µM; in the experiment on HCT-116 colon, 32.6 µM; in the experiment on SN12C renal, 38.4 µM; in the experiment with KM12 colon, 33.9 µM. The TGI in the experiment with A498 renal was determined as 30.2 µM; in the experiment with UO-31 renal, 34 µM.

Take `COc1cnc2c(c1)C(=O)c1c-2n(CCCNC2=NCCS2)c(=O)c2cc(Cl)ccc12`: the GI50 in the experiment on OVCAR-3 ovarian is 1.35 µM; in the experiment with HCC-2998 colon, 1.36 µM; with RPMI-8226 leukemia, 1.07 µM; in the experiment on HCT-116 colon, 0.352 µM; with KM12 colon it was 1.33 µM; in the experiment on A498 renal, 1.29 µM. The GI50 in the experiment on UO-31 renal was 0.163 µM. For the same molecule, the TGI in the experiment with OVCAR-3 ovarian was determined as 3.07 µM; in the experiment with HCC-2998 colon, 2.68 µM; in the experiment on RPMI-8226 leukemia it was 4.89 µM; with HCT-116 colon, 2.19 µM; in the experiment with KM12 colon, 2.82 µM; in the experiment on A498 renal, 19.8 µM. In addition, the TGI in the experiment on UO-31 renal was determined as 1.74 µM.

Turning to `O=[N+]([O-])c1cc(Cl)cnc1Br`, the TGI with OVCAR-3 ovarian turned out to be 6.2 µM; in the experiment on HCC-2998 colon, 3.05 µM; in the experiment with RPMI-8226 leukemia it was 6.79 µM; in the experiment with HCT-116 colon, 24 µM; in the experiment on SN12C renal it was 7.82 µM; with MALME-3M melanoma, 49.7 µM. Moreover, the figures for the TGI with KM12 colon, in the experiment on A498 renal and in the experiment on UO-31 renal were 19 µM, 32 µM and 3.59 µM, respectively.

In the case of `CNC(=O)OCc1c2ccncc2c(C)c2c1[nH]c1ccc(OC)cc12`, the TGI in the experiment with OVCAR-3 ovarian was over 100 µM; in the experiment with HCC-2998 colon, 1.02 µM; in the experiment on RPMI-8226 leukemia, 0.668 µM; with HCT-116 colon, 0.777 µM; with SN12C renal it was over 100 µM; with MALME-3M melanoma, 1.87 µM. Moreover, the TGI is over 100 µM in the experiment on KM12 colon, 0.458 µM in the experiment on A498 renal and 0.395 µM in the experiment on UO-31 renal.

In the case of `CCCN(CCC)C(=O)C(=O)c1c(N)[nH]n(-c2ccccc2)c1=O`, the TGI with OVCAR-3 ovarian, in the experiment on HCC-2998 colon, in the experiment on RPMI-8226 leukemia, in the experiment with HCT-116 colon, in the experiment with SN12C renal and in the experiment with MALME-3M melanoma was over 100 µM each time. Also, the TGI with KM12 colon, in the experiment on A498 renal and in the experiment on UO-31 renal was over 100 µM in each case.

As to `O=C(N/C(=C\c1ccc(/C=C(\NC(=O)c2ccccc2)c2nc3ccccc3[nH]2)cc1)c1nc2ccccc2[nH]1)c1ccccc1`, the TGI with OVCAR-3 ovarian, in the experiment on HCC-2998 colon, in the experiment with RPMI-8226 leukemia, in the experiment with HCT-116 colon, in the experiment on SN12C renal and with MALME-3M melanoma was over 100 µM throughout. Further, the TGI in the experiment with A498 renal and in the experiment with UO-31 renal was over 100 µM throughout.

For `[O-]c1ccccc1/C=N/C(/N=C/c1ccccc1[O-])c1ccccc1O.[O-]c1ccccc1/C=N/C(/N=C/c1ccccc1[O-])c1ccccc1O.[Zr+4]`, the GI50 in the experiment with HCC-2998 colon was 34.7 µM; in the experiment on RPMI-8226 leukemia it was 24.5 µM; in the experiment on HCT-116 colon it was 40.8 µM; in the experiment with SN12C renal, 57.3 µM; with KM12 colon, 38.6 µM; in the experiment on UO-31 renal it was 14.4 µM. Also, the TGI in the experiment on HCC-2998 colon was over 100 µM; with RPMI-8226 leukemia, over 100 µM; in the experiment with HCT-116 colon, over 100 µM; in the experiment on SN12C renal, over 100 µM; with KM12 colon, over 100 µM; with UO-31 renal, 98.7 µM.

For `CN(C)C(=O)c1cnc2oc3ccc(O)cc3c2c1-c1ccccc1`, the GI50 was over 25 µM in the experiment with OVCAR-3 ovarian; 3.78 µM in the experiment on SR leukemia; over 25 µM with RPMI-8226 leukemia; over 25 µM in the experiment on HCT-116 colon; over 25 µM with KM12 colon; 20.5 µM in the experiment with UO-31 renal. In addition, the TGI in the experiment with OVCAR-3 ovarian, in the experiment with SR leukemia, with RPMI-8226 leukemia, in the experiment with HCT-116 colon, in the experiment with KM12 colon and in the experiment on UO-31 renal was over 25 µM each time.
